According to patent US8664210B2, “Aminooxime derivatives of 2- and/or 4-substituted androstanes and androstenes as medicaments for cardiovascular disorders” (priority 2007, dated 2014):
Counter-ions that a name gives are not always drawn. Like-named read-outs stand apart in the source and are kept apart here.

Tests used:
[1] = target: Dog Kidney Na+, K+-ATPase (Canis lupus familiaris, UniProt P50997); test: Dog kidney Na+,K+-ATPase inhibition (hydrolysis of 32P-ATP); type: biochemical
Na+,K+-ATPase = Na+,K+-ATPase (Canis lupus familiaris, UniProt P50997); conditions: relative to compound 22b; cited from earlier work
anesthetized guinea-pig = test: inotropic effect and lethal dose in anesthetized guinea-pig (infusion over 90 minutes); type: in vivo; conditions: for Lethal dose/ED80: calculated in the died animals
Procedure: The inotropic activity is shown as maximum increase in contractile force (Emax measured as +dP/dTmax), dose inducing maximum positive inotropic effect (EDmax), inotropic potency (ED80, dose increasing +dP/dTmax by 80%); the toxicity as the ratio between lethal dose and inotropic potency (calculated in the died animals). All animals, previously anesthetized, were administered the drug through infusion over a 90 minute period.

[2] = anesthetized guinea-pig, infusion over 90 min
[3] = dog kidney enzyme, read-out: Na+, K+-ATPase Inhibition IC50

C[C@@H]1/C(=N/OCCN)CC[C@@]2(C)C1C(=O)C[C@@H]1[C@@H]2CC[C@]2(C)C(=O)CC[C@@H]12.Cl (stereo partly drawn) [Compd. 22d, (E)-3-(2-aminoethoxyimino)-4α-methylandrostan-6,17-dione hydrochloride]
IC50 [1]: 6 µM | times less active than des-methyl compound 22b (Na+,K+-ATPase): 30 | Dead/treated (anesthetized guinea-pig; [2]): 0/3 | ED80 (inotropic potency, dose increasing +dP/dTmax by 80%) (anesthetized guinea-pig; [2]): 23.0 µmol/kg | EDmax (dose inducing maximum positive inotropic effect) (anesthetized guinea-pig; [2]): 149 µmol/kg | Emax % increase in +dP/dTmax (maximum increase in contractile force) (anesthetized guinea-pig; [2]): 190% | Maximum dose infused (anesthetized guinea-pig; [2]): 250.3 µmol/kg | Notes (toxic signs during infusion) (anesthetized guinea-pig; anesthetized guinea-pig, infusion over 90 min, hydrochloride): tremors and contractions appeared during the infusion

CC12CCC3C(C(O)CC4C5(CCCC5)C(=NOC5CCNC5)CCC34C)C1CCC2O [I-bs, (E)-3-[(3-(R)-Pyrrolidinyl)oxyimino]-4-spirocyclopentaneandrostan-7α,17β-diol fumarate]
IC50 [1, 3]: 1.1 µM

CC1(C)/C(=N/OCCN)CC[C@@]2(C)C1C(=O)C[C@@H]1[C@@H]2CC[C@]2(C)C(=O)CC[C@@H]12 (stereo partly shown) [I-at, (E)-3-(2-Aminoethoxyimino)-4,4-dimethylandrostan-6,17-dione fumarate]
IC50 [1]: 1.7 µM

CC1(C)/C(=N/O[C@@H]2CCNC2)CC[C@@]2(C)C1CC[C@H]1[C@@H]3CC[C@H](O)[C@@]3(C)CC[C@@H]12 (stereo partly drawn) [I-ak, (E)-3-[3-(R)-Pyrrolidinyl]oxyimino-4,4-dimethylandrostan-17β-ol fumarate]
IC50 [1]: 2 µM

CNCCCON=C1CCC2(C)C3CCC4(C)C(O)CCC4C3CCC2C1(C)C (stereo not drawn) [I-aj, (E)-3-(3-N-Methylaminopropoxyimino)-4,4-dimethylandrostan-17β-ol fumarate]
IC50 [1]: 1.4 µM

CC[C@H]1/C(=N/OCCN)CC[C@@]2(C)C1C(=O)C[C@@H]1[C@@H]2CC[C@]2(C)C(=O)CC[C@@H]12 (stereo partly drawn) [I-bd, (E)-3-(2-Aminoethoxyimino)-4β-ethylandrostan-6,17-dione hydrochloride]
IC50 [1]: 0.13 µM

C[C@H]1O[C@@H](O[C@H]2[C@@H](O)C[C@H](O[C@H]3[C@@H](O)C[C@H](O[C@H]4CC[C@@]5(C)[C@H](CC[C@@H]6[C@@H]5C[C@@H](O)[C@]5(C)[C@@H](C7=CC(=O)OC7)CC[C@]65O)C4)O[C@@H]3C)O[C@@H]2C)C[C@H](O)[C@@H]1O [Digoxin, digoxin]
Dead/treated (anesthetized guinea-pig; [2]): 10/10 | ED80 (inotropic potency, dose increasing +dP/dTmax by 80%) (anesthetized guinea-pig; [2]): 0.29 µmol/kg | EDmax (dose inducing maximum positive inotropic effect) (anesthetized guinea-pig; [2]): 0.65 µmol/kg | Emax % increase in +dP/dTmax (maximum increase in contractile force) (anesthetized guinea-pig; [2]): 158% | Maximum dose infused (anesthetized guinea-pig; [2]): 1.16 µmol/kg | Lethal dose/ED80 (anesthetized guinea-pig): 4.0

C[C@]12CC[C@H]3[C@@H](CCC4C/C(=N\OCCN)[C@H](F)C[C@@]43C)[C@@H]1CC[C@@H]2O (stereo partly drawn) [I-bf, (E)-3-(2-Aminoethoxyimino)-2α-fluoroandrostan-17β-ol fumarate]
IC50 [1]: 2.4 µM

C[C@]12CC/C(=N\O[C@@H]3CCNC3)C3(CC3)C1=CC[C@@H]1[C@@H]2CC[C@]2(C)C(=O)CC[C@@H]12 [I-bo, (E)-3-[(3-(R)-Pyrrolidinyl)oxyimino]-4-spirocyclopropane-5-androsten-17-one fumarate]
IC50 [1, 3]: 0.69 µM

CC(C)C1=C2CC[C@H]3[C@@H]4CC[C@H](O)[C@@]4(C)CC[C@@H]3[C@@]2(C)CC/C1=N\O[C@@H]1CCNC1 [I-bv, fumarate]
IC50 [1, 3]: 3.9 µM

CC1(C)/C(=N/O[C@H]2CCNC2)CC[C@@]2(C)C1CC[C@H]1[C@@H]3CC[C@H](O)[C@@]3(C)CC[C@@H]12 (stereo partly drawn) [I-al, (E)-3-[3-(S)-Pyrrolidinyl]oxyimino-4,4-dimethylandrostan-17β-ol fumarate]
IC50 [1]: 2.6 µM

CC1=C2CC[C@H]3[C@@H]4CC[C@H](O)[C@@]4(C)CC[C@@H]3[C@@]2(C)CC/C1=N\OCCN [I-aa, (E)-3-(2-Aminoethoxyimino)-4-methylandrost-4-en-17β-ol hydrochloride]
IC50 [1]: 4.9 µM

CC1(C)/C(=N/O[C@@H]2CCNC2)CC[C@@]2(C)C1CC[C@@H]1[C@@H]2CC[C@]2(C)C(=O)CC[C@@H]12 (stereo partly drawn) [I-ao, (E)-3-[3-(R)-Pyrrolidinyl]oxyimino-4,4-dimethylandrostan-17-one fumarate]
IC50 [1]: 1.3 µM

C[C@]12CC/C(=N\O[C@@H]3CCNC3)[C@@H](F)C1CC[C@@H]1[C@@H]2CC[C@]2(C)C(=O)CC[C@@H]12 (stereo partly drawn) [I-bl, (E)-3-[3-(R)-Pyrrolidinyl]oxyimino-4α-fluoroandrostan-17-one fumarate]
IC50 [1]: 0.55 µM

C[C@]12CC/C(=N\O[C@@H]3CCNC3)[C@@H](O)C1CC[C@@H]1[C@@H]2CC[C@]2(C)C(=O)CC[C@@H]12 (stereo partly drawn) [I-bn, (E)-3-[3-(R)-Pyrrolidinyl]oxyimino-4α-hydroxyandrostan-17-one fumarate]
IC50 [1]: 2.7 µM

CC[C@H]1/C(=N/O[C@@H]2CCNC2)CC[C@@]2(C)C1[C@@H](O)C[C@@H]1[C@@H]2CC[C@]2(C)C(=O)CC[C@@H]12 (stereo partly drawn) [I-bx, (E)-3-[3-(R)-Pyrrolidinyl]oxyimino-4β-ethyl-6α-hydroxyandrostan-17-one hydrochloride]
IC50 [1]: 0.065 µM

C[C@]12CC[C@H]3[C@@H](CCC4C/C(=N\O[C@@H]5CCNC5)[C@H](F)C[C@@]43C)[C@@H]1CC[C@@H]2O (stereo partly drawn) [I-bg, (E)-3-[3-(R)-Pyrrolidinyl]oxyimino-2α-fluoroandrostan-17β-ol fumarate]
IC50 [1]: 0.84 µM

CC[C@@H]1/C(=N/O[C@@H]2CCNC2)CC[C@@]2(C)C1CC[C@H]1[C@@H]3CC[C@H](O)[C@@]3(C)CC[C@@H]12 (stereo partly drawn) [I-bw, (E)-3-[(3-(R)-Pyrrolidinyl)oxyimino]-4α-ethylandrostan-17β-ol fumarate]
IC50 [1]: 1.8 µM

CO/N=C1\C[C@H]2[C@@H]3CC[C@H](O)[C@@]3(C)CC[C@@H]2[C@@]2(C)C[C@@H](F)/C(=N/O[C@@H]3CCNC3)CC12 (stereo partly drawn) [I-bk, (E)-3-[3-(R)-Pyrrolidinyl]oxyimino-2α-fluoro-6-(E)-methoxyiminoandrostan-17β-ol fumarate]
IC50 [1, 3]: 1.9 µM

CC12CCC3C(CCC4C5(CCCC5)C(=NOC5CCNC5)CCC34C)C1CCC2O [I-bq, (E)-3-[(3-(R)-Pyrrolidinyl)oxyimino]-4-spirocyclopentaneandrostan-17β-ol fumarate]
IC50 [1, 3]: 3.1 µM

CC[C@H]1/C(=N/O[C@@H]2CCNC2)CC[C@@]2(C)C1C(=O)C[C@@H]1[C@@H]2CC[C@]2(C)C(=O)CC[C@@H]12.Cl (stereo partly drawn) [I-be, (E)-3-[3-(R)-Pyrrolidinyl]oxyimino-4β-ethylandrostan-6,17-dione hydrochloride]
IC50 [1]: 0.049 µM | Dead/treated (anesthetized guinea-pig; [2]): 3/3 | ED80 (inotropic potency, dose increasing +dP/dTmax by 80%) (anesthetized guinea-pig; [2]): 1.40 µmol/kg | EDmax (dose inducing maximum positive inotropic effect) (anesthetized guinea-pig; [2]): 2.81 µmol/kg | Emax % increase in +dP/dTmax (maximum increase in contractile force) (anesthetized guinea-pig; [2]): 179% | Maximum dose infused (anesthetized guinea-pig; [2]): 12.6 µmol/kg | Lethal dose/ED80 (anesthetized guinea-pig): 7.8

CC1(C)/C(=N/O[C@@H]2CCNC2)CC[C@]2(C)[C@H]3CC[C@]4(C)[C@@H](O)CC[C@H]4[C@@H]3CC[C@@]12O [I-by, (E)-3-[3-(R)-Pyrrolidinyl]oxyimino-4,4-dimethylandrostan-5α,17β-diol hydrochloride]
IC50 [1]: 2.2 µM

CC1(C)/C(=N/OCCN)CC[C@@]2(C)C1CC[C@H]1[C@@H]3CC[C@H](O)[C@@]3(C)CC[C@@H]12 (stereo partly drawn) [I-ag, (E)-3-(2-Aminoethoxyimino)-4,4-dimethylandrostan-17β-ol fumarate]
IC50 [1]: 3.9 µM

CC1(C)/C(=N/OCCN)CC[C@@]2(C)C1CC[C@@H]1[C@@H]2CC[C@]2(C)C(=O)CC[C@@H]12 (stereo partly shown) [I-am, (E)-3-(2-Aminoethoxyimino)-4,4-dimethylandrostan-17-one fumarate]
IC50 [1]: 1.7 µM

CC1(C)/C(=N/OCCCN)CC[C@@]2(C)C1CC[C@@H]1[C@@H]2CC[C@]2(C)C(=O)CC[C@@H]12 (stereo partly shown) [I-an, (E)-3-(3-Aminopropoxyimino)-4,4-dimethylandrostan-17-one fumarate]
IC50 [1]: 1.5 µM

CC1(C)/C(=N/O[C@@H]2CCNC2)CC[C@]2(C)[C@H]3CC[C@]4(C)C(=O)CC[C@H]4[C@@H]3CC(=O)[C@@]12O [I-au, (E)-3-[3-(R)-Pyrrolidinyl]oxyimino-4,4-dimethyl-5α-hydroxyandrostan-6,17-dione fumarate]
IC50 [1]: 2.2 µM

C[C@]12C[C@@H](F)/C(=N/O[C@@H]3CCNC3)CC1CC[C@@H]1[C@@H]2CC[C@]2(C)C(=O)CC[C@@H]12.Cl (stereo partly drawn) [I-bh, (E)-3-[3-(R)-Pyrrolidinyl]oxyimino-2α-fluoroandrostan-17-one hydrochloride]
IC50 [1]: 1.1 µM | Dead/treated (anesthetized guinea-pig; [2]): 2/2 | ED80 (inotropic potency, dose increasing +dP/dTmax by 80%) (anesthetized guinea-pig; [2]): 7.00 µmol/kg | EDmax (dose inducing maximum positive inotropic effect) (anesthetized guinea-pig; [2]): 14.0 µmol/kg | Emax % increase in +dP/dTmax (maximum increase in contractile force) (anesthetized guinea-pig; [2]): 210% | Maximum dose infused (anesthetized guinea-pig; [2]): 100.8 µmol/kg | Lethal dose/ED80 (anesthetized guinea-pig): 7.5

C[C@]12CC[C@H]3[C@@H](CC=C4C5(CC5)/C(=N/OCCN)CC[C@@]43C)[C@@H]1CC[C@@H]2O [I-bb, (E)-3-(2-Aminoethoxyimino)-4-(spirocyclopropane)-5-androsten-17β-ol fumarate]
IC50 [1, 3]: 1.5 µM

C[C@]12CC[C@H]3[C@@H](CC=C4C5(CC5)/C(=N/O[C@@H]5CCNC5)CC[C@@]43C)[C@@H]1CC[C@@H]2O [I-bc, (E)-3-[3-(R)-Pyrrolidinyl]oxyimino-4-spirocyclopropane androst-5-en-17β-ol fumarate]
IC50 [1, 3]: 1.8 µM

CC1(C)/C(=N/OCCCN)CC[C@@]2(C)C1CC[C@H]1[C@@H]3CC[C@H](O)[C@@]3(C)CC[C@@H]12 (stereo partly drawn) [I-ai, (E)-3-(3-Aminopropoxyimino)-4,4-dimethylandrostan-17β-ol fumarate]
IC50 [1]: 1.9 µM

C[C@]12CC[C@H]3[C@@H](CC(=O)C4C/C(=N\O[C@@H]5CCNC5)[C@H](F)C[C@@]43C)[C@@H]1CC[C@@H]2O (stereo partly drawn) [I-bi, (E)-3-[3-(R)-Pyrrolidinyl]oxyimino-2α-fluoro-17β-hydroxyandrostan-6-one fumarate]
IC50 [1]: 1.3 µM
